Where “and” joins values, the source holds several entries; their conditions need not be identical. Identical values can stand only once.

The test relates to P. falciparum 3D7 growth, pLDH absorbance. Briefly: blood-stage malaria parasite growth potency – strain 3D7, dose response (AID 2305).
Take `CC(CN(C)C)C(=O)Nc1cccc(-c2ccc(-c3nc4ccc(F)cc4[nH]3)cc2)c1` (stereo not given): the 50% inhibitory concentration (IC50) (commonly the point on the concentration scale where inhibition reaches its midpoint) worked out at 650 nM.

Compound `Cc1[nH]cnc1-c1cccc(NC(=O)c2cc3ccccc3s2)c1` returned an IC50 of 210 nM.

In turn, `O=c1cc(NC[C@H]2CCC[C@@H]2NC2CCCc3c2[nH]c2ccccc32)[nH]c2ccccc12` (stereo not given in full) showed an IC50 of 790 nM.

Regarding `CC(C)CNCc1cccc(-c2ccc(CN(CCCN3CCN(C)CC3)C(=O)/C=C/c3ccccc3)cc2)c1`, the IC50 stood at 860 nM.

Compound `CC(C)C[C@@H](/C=N/N1CCNC1=O)NC(=O)[C@H](CC(C)C)NC(=O)c1ccc(OCCN2CCOCC2)cc1` had a concentration for half-maximal inhibition (IC50) of 190 nM.

As to `CCC(NC[C@@H](O)[C@H](Cc1ccccc1)NC(=O)c1cc(C2CCCC2)cc(N2CCCC2=O)c1)c1cccc(Cl)c1` (stereo not given in full), the half-maximal inhibitory concentration (IC50) turned out to be 40 nM.

`CCCC(C)NC(=O)C(N)Cc1cccc(I)c1` (stereo not given): the half-maximal inhibitory concentration (IC50) amounted to 980 nM.

`Cc1oc(-c2ccccc2)nc1CCOc1ccc(C[C@H](Nc2ccccc2C(=O)c2ccccc2)C(=O)NCc2ccccn2)cc1` had an IC50 of 880 nM.

As for `CCCCCc1ccc(N2C(N)=NC(N)=NC2(C)C)cc1`, the IC50 came to 130 nM.

For `COc1cc(Nc2nccc(-c3c(-c4cccc(NC(=O)c5c(F)cccc5F)c4)nn4ncccc34)n2)cc(OC)c1OC`, the IC50 is 30 nM.

`Cn1nccc1C(=O)NCCNCc1ccc(-c2cccc(-c3nc4ccc(C(F)(F)F)cc4[nH]3)c2)cc1` returned a concentration for half-maximal inhibition (IC50) of 120 nM.

In turn, `COc1ccc(CNc2ccnc3cc(OC)ccc23)cc1` had a 50% inhibitory concentration (IC50) of 770 nM.

`CCOC(=O)c1c(CSc2ccccc2)oc2cc(CN(C)C)c(O)c(Cl)c12` had a concentration for half-maximal inhibition (IC50) of 660 nM.

For the compound `NC(=O)c1ccccc1Nc1nc(Nc2ccc(N3CCOCC3)cc2)ncc1[N+](=O)[O-]`, the half-inhibitory concentration (IC50) was 880 nM.

`CCCCn1c(-c2ccco2)nc2c(c(=O)c3ccccc3n2C)c1=O`: the IC50 came to 1240 nM.

For the compound `Cc1[nH]c2cccc(F)c2c(=O)c1Cc1ccc(Cl)cc1` (tested in a mixture with another compound), the IC50 is 230 nM and 350 nM.

For `O=C(Cn1c(CCc2cccc(F)c2F)nc(=O)c2cccnc21)N(Cc1ccc(-c2ccc(C(F)(F)F)cc2)cc1)C1CCN(C2CCSCC2)CC1`, the half-maximal inhibitory concentration (IC50) was found to be 230 nM.

`COc1ccc2nccc(NN=Cc3ccc(Cl)cc3)c2c1` gave an IC50 of 210 nM.

`Clc1cc(Nc2ncnc3sc(C#Cc4ncc[nH]4)cc23)ccc1OCc1ccccn1` displayed an IC50 of 1110 nM.

`O=C(Nc1ccc(-c2nc3ccccc3[nH]2)cc1)c1ccc(S(=O)(=O)N2CCCCC2)cc1`: the IC50 stood at 750 nM.

For the compound `CC(=O)C1(c2ccccc2)CCN(CCC(NC(=O)c2cc(C(F)(F)F)cc(C(F)(F)F)c2)c2ccc(Cl)c(Cl)c2)CC1` (stereo not given), the IC50 was determined as 1190 nM.

`Cc1ccc(Cn2nc(Cl)c(N3CCNCC3)cc2=O)cc1NC(=O)Nc1ccc(-c2ccccc2)cc1` yielded an IC50 of 680 nM.

As for `CCOC(=O)c1c(C)noc1Nc1ccc(OC)cc1`, the concentration for half-maximal inhibition (IC50) turned out to be 670 nM.

`CCCCCc1cc(OCCN(C)C)cc2c1C(=O)CC(C)(C)O2`: the IC50 was found to be 100 nM.

Consider `O=C(/C=C/c1ccc(Cl)c(Cl)c1)N1CCC(CCCN2CCC(c3c[nH]c4ccc(O)cc34)CC2)CC1`, for which the half-maximal inhibitory concentration (IC50) came to 690 nM.

The compound `COc1ccc2nccc(NN=CC=Cc3ccccc3)c2c1` registered an IC50 of 740 nM.

`COc1ccc(CNC(=O)c2cnc3c(O)cccc3c2Nc2cccc(NC(=O)c3ccc(Cl)c(Cl)c3)c2)cc1` yielded a half-inhibitory concentration (IC50) of 600 nM.

In turn, `Cc1[nH]cnc1CSCCNC(=NCCCCCCCCN=C(NC#N)NCCSCc1nc[nH]c1C)NC#N` gave a half-inhibitory concentration (IC50) of 1270 nM.

`O=C(NCCc1ccccc1)N(Cc1ccccc1-c1cccc(CNCCc2ccccc2)c1)C1CCN(Cc2ccccc2)CC1` returned an IC50 of 620 nM.

Compound `NCc1cccc(-c2cccc(CNC3CCN(Cc4ccccc4)CC3)c2)c1` returned a half-inhibitory concentration (IC50) of 720 nM.

In the case of `O=C(/C=C/c1ccc(Cl)c(Cl)c1)NCCCCN1CCCN(C(=O)Nc2ccc(F)c(Cl)c2)CC1`, the IC50 was 1510 nM.

`O=C(c1ccc([N+](=O)[O-])o1)N1CCC(c2cn(Cc3cccc(F)c3)c3ccccc23)CC1` showed a concentration for half-maximal inhibition (IC50) of 640 nM.

`CN(C)Cc1cc(Nc2ccnc3cc(Cl)ccc23)ccc1O` displayed a concentration for half-maximal inhibition (IC50) of 10 nM.

Compound `Cc1cccc2[nH]c(-c3ccc(-c4cccc(NC(=O)Nc5ccc(Cl)c(Cl)c5)c4)s3)nc12` gave an IC50 of 590 nM.

Compound `Cc1sc(NC(=O)Cc2cccc(C(F)(F)F)c2)nc1-c1cccc(Cl)c1` displayed a half-maximal inhibitory concentration (IC50) of 470 nM.

As to `COc1ccc2nccc([C@@H](O)CN3CCC(NC(=O)/C=C/c4cc(F)cc(NC(C)=O)c4)CC3)c2c1`, the IC50 was 180 nM.

`COCCNCc1ccc(-c2ccc(CN(C(=O)NC3CCCCC3)C3CCN(Cc4ccccc4)CC3)cc2)cc1` returned a 50% inhibitory concentration (IC50) of 960 nM.

Compound `Cn1cccc1CCNCc1ccc(-c2cccc(-c3nc4ccccc4[nH]3)c2)cc1` showed an IC50 of 1210 nM.

Take `CC(C)CN(C)c1ncnc2c1nc(-c1cncc(C#N)c1)n2CCNCc1ccccc1`: the 50% inhibitory concentration (IC50) turned out to be 1360 nM.

In turn, `O=C(Nc1cccc(-c2ccc(NCCCN3CCCC3)nc2)c1)c1ccccc1` registered an IC50 of 870 nM.

In turn, `CNS(=O)(=O)c1ccc2c(c1)nc(C1CCN(CC3CCC(NC(=O)/C=C/c4ccc(Cl)c(Cl)c4)CC3)CC1)n2C` (stereo not given) yielded an IC50 of 670 nM.

`O=C(Nc1ccc(-c2cncc(NCCCN3CCCC3)c2)cc1)c1ccccc1` came in with an IC50 of 940 nM.

In turn, `CC(=O)Oc1cc(C)ccc1C1CCN(CCCCNC(=O)c2ccc(NC(=O)c3ccc(Cl)cc3)cc2)CC1` gave a half-inhibitory concentration (IC50) of 720 nM.

Compound `Cc1c(Br)cc2[nH]c(-c3ccc(C(=O)NC4CCN(Cc5ccccc5)CC4)cc3)nc2c1C` displayed a half-inhibitory concentration (IC50) of 330 nM.

Take `O=C(NCCc1ccccc1)N(Cc1ccccc1-c1cccc(CNCc2ccc3c(c2)OCO3)c1)C1CCN(Cc2ccccc2)CC1`: the half-inhibitory concentration (IC50) turned out to be 990 nM.

Compound `COc1cccc(CCc2cccc(CNC(C)=O)c2)c1` displayed an IC50 of 1040 nM.

In turn, `Cc1cc(-c2cccc3c(C(=O)N4CCc5cc6nccc(N7CCN8CCC[C@H]8C7)c6cc54)cccc23)cc(C)n1` displayed an IC50 of 710 nM.

With `Cc1cc(NCCc2ccc(O)cc2)nc(NCC(c2ccccc2)c2ccccc2)n1`, the half-inhibitory concentration (IC50) is 320 nM.

Compound `Cc1ccc(-c2cnc(N)c3cc(-c4ccnc(N)n4)ccc23)cc1` gave an IC50 of 810 nM.

Take `Clc1ccccc1/C=C/c1cncnc1Nc1ccc2nc(Cc3ccccc3)[nH]c2c1`: the IC50 was 920 nM.

For `Cc1ccc(C2(O)C[C@H]3CC[C@@H](C2)N3C)cc1` (stereo not given in full), the IC50 was determined as 610 nM.

In the case of `CN1CCC(NCc2cccc(-c3ccc(S(=O)(=O)NCCN4CCCC4)s3)c2)CC1`, the IC50 worked out at 930 nM.

`NC(=O)C1CCN(Cc2cccc(-c3ccc(-c4nc5ccc(C(F)(F)F)cc5[nH]4)cc3)c2)CC1`: the IC50 is 610 nM.

Regarding `COc1cccc(Nc2nc(N)c3ccccc3n2)c1`, the IC50 came out at 930 nM.

In turn, `CCOc1ccc(-c2nonc2NC(=O)c2ccc(F)cc2)cc1OCC` showed an IC50 of 330 nM.

`FC(F)(F)c1cccc(Nc2nc3ccccc3nc2Nc2cccc(C(F)(F)F)c2)c1` returned an IC50 of 140 nM.

Consider `COc1cc(Nc2ncnc3cc(OC)c(OC)cc23)cc([N+](=O)[O-])c1`, for which the 50% inhibitory concentration (IC50) stood at 810 nM.

Regarding `COc1ccc(O)cc1/C=N/Nc1ccnc2cc(Cl)ccc12`, the IC50 was 540 nM.

`O=C(Nc1nc(-c2ccccn2)cs1)c1ccc(Br)s1` yielded an IC50 of 1060 nM.

Regarding `CC(=O)Nc1ccc(CN2CCCN(c3cc(NC(=O)c4cccc(C)c4)ccn3)CC2)cc1`, the IC50 worked out at 860 nM.

Regarding `CCCCCCCSc1ccc(CC(C)NCC(O)c2cccc(Cl)c2)cc1` (stereo not given), the half-maximal inhibitory concentration (IC50) turned out to be 180 nM.

As for `Cc1ccc(S(=O)(=O)N(C)c2ccccc2C(=O)Nc2ccccc2Oc2ccccc2)cc1`, the IC50 was found to be 920 nM.

`C=CCOC(=O)N1CCC(CNCc2cccc(-c3ccc(-c4nc5c(C)cccc5[nH]4)s3)c2)C1` (stereo not given) yielded an IC50 of 250 nM.

Regarding `COc1ccccc1C(=O)Nc1cccc(N2CCC(NCc3ccc(-n4cccn4)cc3)CC2)c1`, the IC50 amounted to 1190 nM.

In turn, `CCCCOC(=O)NCCCC[C@H](NC(=O)OC(C)(C)C)C(=O)N[C@H](C(=O)OC(c1ccccc1)c1ccccc1)[C@H]1O[C@@H](n2ccc(=O)[nH]c2=O)[C@@H]2OC(C)(C)O[C@@H]21` registered an IC50 of 1090 nM.

In the case of `COc1cccc(NC(=O)COc2ccc(C(=O)Nc3nc4ccccc4[nH]3)cc2)c1`, the IC50 was found to be 970 nM.

Compound `CC1(C)N=C(N)N=C(N)N1OCCCNC(=O)c1ccc(C(=O)NCCCON2C(N)=NC(N)=NC2(C)C)cc1` gave an IC50 of 20 nM.

In turn, `CCOC(=O)c1cnc2c(OC)cc(OC)c(Cl)c2c1Nc1ccccc1` returned an IC50 of 870 nM.

`COc1ccccc1C1CCN(C2CCC(NC(=O)c3cc4ccccc4[nH]3)CC2)CC1` (stereo not given) returned an IC50 of 1210 nM.

`O=C(/C=C/c1ccc(Cl)c(Cl)c1)NCCCCCN1CCC(C(=O)Nc2ccc(Cl)cc2)CC1` registered an IC50 of 780 nM.

Turning to `CCOC(=O)C1=C(C)NC2=C(C(=O)CC(C)(C)C2)C1c1ccc(Br)cc1` (stereo not given), the half-maximal inhibitory concentration (IC50) came to 1160 nM.

In turn, `Nc1ccc(-c2nc3cc(C4=N[C@H]5CCCC[C@H]5N4)ccc3o2)cc1[N+](=O)[O-]` had an IC50 of 1120 nM.

As to `COc1ccc(CNCc2cccc(-c3cccc(-c4nc5ccc(C(F)(F)F)cc5[nH]4)c3)c2)cc1`, the IC50 came out at 200 nM.

On to `O=C(Nc1ccc(C(F)(F)F)cc1)c1ccc(S(=O)(=O)NC2CCN(CC3CCCCC3)C2)cc1` (stereo not given), for which the IC50 stood at 720 nM.

As to `CCOCCCn1c(=N)c(C(=O)NCc2ccc(OC)cc2)cc2c(=O)n3cccc(C)c3nc21`, the IC50 was 1060 nM.

For `CC(=O)N1N=C(c2ccc(Cl)cc2)Sc2c1nc(C1CCCCC1)n2C(C)=O`, the 50% inhibitory concentration (IC50) was found to be 250 nM.

In turn, `CCc1cccc(-n2c(=O)c3cccnc3n2CC(=O)NCc2ccccc2Cl)c1` yielded an IC50 of 740 nM.

The compound `O=C(CCOc1ccccc1)NCC1CCCO1` (stereo not given) yielded an IC50 of 1000 nM.

With `Cc1cccc2[nH]c(-c3cccc(-c4ccc(CNCc5cccc(N)c5)cc4)c3)nc12`, the half-maximal inhibitory concentration (IC50) amounted to 260 nM.

In turn, `O=C(/C=C/c1cccc2c1OCO2)Nc1ccnc2ccncc12` had an IC50 of 900 nM.

Compound `CC(C)N1CCC(N(Cc2ccc(-c3ccc(Cl)cc3)cc2)C(=O)Cn2c(CCc3cccc(F)c3F)cc(=O)c3ccccc32)CC1` returned a half-maximal inhibitory concentration (IC50) of 930 nM.

The compound `CC(C)(C)c1cc(N=NC(=O)c2ccncc2)cc(C(C)(C)C)c1O` displayed a 50% inhibitory concentration (IC50) of 700 nM.

For `C[C@H](CNc1ccnc(Nc2ccc3[nH]c(=O)[nH]c3c2)n1)c1ccccc1`, the IC50 amounted to 1310 nM.

In turn, `CC(C)c1sc(-c2ccc(C(C)(C)C)cc2)nc1C(=O)NCCCN1CCCC1=O` came in with a half-maximal inhibitory concentration (IC50) of 670 nM.

Regarding `COc1ccc2nc(C)cc(Nc3ccc(Oc4ccc(Cl)c5ccccc45)c(Cl)c3)c2c1`, the IC50 is 730 nM.

Values taken from PubChem BioAssay AID2305 (GlaxoSmithKline (GSK), 2010).
